Format in all cases: functional
One assay has as its system Pseudomonas putida. In words: Antibacterial activity against Pseudomonas putida NBRC 14164 by agar-dilution method.
In a further assay the test system is Staphylococcus aureus. In words: Antibacterial activity against Staphylococcus aureus subsp. aureus NBRC 15035 by agar-dilution method.
The next assay deals with Escherichia coli. In words: Antibacterial activity against Escherichia coli MG1655 by agar-dilution method. As to conditions: K-12 substr. MG1655.
The test system of another assay is Bacillus subtilis. In words: Antibacterial activity against Bacillus subtilis 168 by agar-dilution method. Conditions: subsp. subtilis str. 168.

This note sets out measurements from ChEMBL document CHEMBL1681749, “Antibacterial activities of imidazolium, pyrrolidinium and piperidinium salts” (2011).

With `CCCCCCCC[n+]1ccn(CCCC[Si](C)(C)C)c1.[I-]`, the MIC was greater than 100 µg/mL in the assay on Pseudomonas putida, 3.13 µg/mL against Staphylococcus aureus, 50 µg/mL in the assay on Escherichia coli and 1.56 µg/mL against Bacillus subtilis.

In the case of `CCCCCC#CC[N+]1(CCCCC[Si](C)(C)C)CCCCC1.[I-]`, the MIC is 100 µg/mL in the assay on Pseudomonas putida, 1.56 µg/mL against Staphylococcus aureus, 50 µg/mL in the assay on Escherichia coli and 1.56 µg/mL with Bacillus subtilis.

On to `C[Si](C)(C)CCCCCCn1cc[n+](Cc2ccc(CC[Si](C)(C)C)cc2)c1.[I-]`, for which the MIC was greater than 100 µg/mL against Pseudomonas putida, 1.56 µg/mL against Staphylococcus aureus, greater than 100 µg/mL in the assay with Escherichia coli and 1.56 µg/mL in the assay on Bacillus subtilis.

For `CCCCCC#CC[N+]1(C)CCCCC1.[I-]`, the minimal inhibitory concentration (MIC) against Pseudomonas putida, against Staphylococcus aureus, in the assay with Escherichia coli and against Bacillus subtilis was greater than 50 µg/mL throughout.

As for `CCCCCC#CC[n+]1ccn(CCCCCCCCCCC[Si](C)(C)C)c1C.[I-]`, the minimum inhibitory concentration (MIC) was greater than 100 µg/mL in the assay on Pseudomonas putida, 1.56 µg/mL in the assay on Staphylococcus aureus, greater than 100 µg/mL against Escherichia coli and 1.56 µg/mL in the assay on Bacillus subtilis.

In the case of `CCCCCC#CC[n+]1ccn(CCCCCC[Si](C)(C)C)c1C.[I-]`, the minimum inhibitory concentration (MIC) in the assay with Pseudomonas putida stood at 50 µg/mL; with Staphylococcus aureus, 0.39 µg/mL; in the assay on Escherichia coli it was 12.5 µg/mL; in the assay with Bacillus subtilis, 0.39 µg/mL.

`CCCCCC#CC[n+]1ccn(CCCCCCCCCCCC)c1.[I-]`: the MIC in the assay on Pseudomonas putida came out at 50 µg/mL; with Staphylococcus aureus, 0.39 µg/mL; in the assay with Escherichia coli, 25 µg/mL; against Bacillus subtilis, 0.39 µg/mL.

As for `C#CC[n+]1ccn(CCCC[Si](C)(C)C)c1.[I-]`, the minimal inhibitory concentration (MIC) in the assay on Pseudomonas putida was greater than 100 µg/mL; against Staphylococcus aureus it was 100 µg/mL; in the assay with Escherichia coli, greater than 100 µg/mL; against Bacillus subtilis it was greater than 100 µg/mL.

Take `CCCCCC#CC[n+]1ccn(CCCCC[Si](C)(C)C)c1.[I-]`: the MIC in the assay on Pseudomonas putida was found to be 100 µg/mL; in the assay on Staphylococcus aureus, 0.78 µg/mL; against Escherichia coli, 25 µg/mL; against Bacillus subtilis, 0.39 µg/mL.

Take `C[Si](C)(C)CCCCCCCn1cc[n+](Cc2ccc(CC[Si](C)(C)C)cc2)c1.[I-]`: the MIC in the assay with Pseudomonas putida is greater than 100 µg/mL; against Staphylococcus aureus, 1.56 µg/mL; against Escherichia coli, greater than 100 µg/mL; against Bacillus subtilis it was 1.56 µg/mL.

As for `CCCCCC#CC[n+]1ccn(CCCCCCCCCCCCCC)c1C.[I-]`, the MIC in the assay with Pseudomonas putida was greater than 100 µg/mL; against Staphylococcus aureus, 0.78 µg/mL; with Escherichia coli, 100 µg/mL; with Bacillus subtilis, 0.78 µg/mL.

With `CCCCCC#CC[n+]1ccn(CCCCCCCCC[Si](C)(C)C)c1.[I-]`, the MIC is greater than 100 µg/mL with Pseudomonas putida, 0.78 µg/mL against Staphylococcus aureus, 100 µg/mL in the assay on Escherichia coli and 0.39 µg/mL in the assay with Bacillus subtilis.

Regarding `C[Si](C)(C)CCCCn1cc[n+](Cc2ccc(CC[Si](C)(C)C)cc2)c1.[I-]`, the minimal inhibitory concentration (MIC) in the assay with Pseudomonas putida was 100 µg/mL; against Staphylococcus aureus, 0.39 µg/mL; in the assay with Escherichia coli it was greater than 100 µg/mL; against Bacillus subtilis it was 0.39 µg/mL.

`CCCCCc1ccc(-[n+]2ccn(CCCC[Si](C)(C)C)c2)cc1.[I-]`: the minimum inhibitory concentration (MIC) came to 100 µg/mL with Pseudomonas putida, 0.39 µg/mL against Staphylococcus aureus, 50 µg/mL against Escherichia coli and 0.39 µg/mL against Bacillus subtilis.

On to `CCCCCC#CC[n+]1ccn(CCCCCCCCCCCCCCCC)c1C.[I-]`, for which the minimum inhibitory concentration (MIC) is greater than 100 µg/mL against Pseudomonas putida, 1.56 µg/mL with Staphylococcus aureus, greater than 100 µg/mL against Escherichia coli and 1.56 µg/mL in the assay with Bacillus subtilis.

Consider `CCCCCC#CC[n+]1ccn(CCCCCCCCCCC)c1C.[I-]`, for which the minimum inhibitory concentration (MIC) with Pseudomonas putida was 50 µg/mL; with Staphylococcus aureus, 0.39 µg/mL; in the assay on Escherichia coli it was 3.13 µg/mL; with Bacillus subtilis, 0.39 µg/mL.

With `CCCCCC#CC[n+]1ccn(CCCCCCC[Si](C)(C)C)c1C.[I-]`, the MIC in the assay with Pseudomonas putida turned out to be 100 µg/mL; against Staphylococcus aureus, 0.39 µg/mL; in the assay on Escherichia coli, 12.5 µg/mL; against Bacillus subtilis, 0.39 µg/mL.

On to `CCCCCC#CC[N+]1(C)CCCC1.[I-]`, for which the MIC against Pseudomonas putida, in the assay with Staphylococcus aureus, against Escherichia coli and against Bacillus subtilis was greater than 50 µg/mL in each case.

`CCCCCC#CC[n+]1ccn(CCCCCCC[Si](C)(C)C)c1.[I-]`: the MIC in the assay on Pseudomonas putida was 100 µg/mL; in the assay with Staphylococcus aureus, 0.78 µg/mL; against Escherichia coli, 25 µg/mL; in the assay on Bacillus subtilis, 0.39 µg/mL.

For the molecule `CCCCCC#CC[n+]1ccn(CCCCCCCCC)c1C.[I-]`, the MIC in the assay on Pseudomonas putida was found to be 50 µg/mL; against Staphylococcus aureus it was 0.78 µg/mL; in the assay on Escherichia coli, 12.5 µg/mL; in the assay on Bacillus subtilis it was 0.78 µg/mL.

For `CCCCCC#CC[n+]1ccn(CCCCCCCCCC)c1C.[I-]`, the minimum inhibitory concentration (MIC) against Pseudomonas putida was 50 µg/mL; against Staphylococcus aureus, 0.39 µg/mL; with Escherichia coli, 3.13 µg/mL; against Bacillus subtilis, 0.78 µg/mL.

`CCCCCC#CC[n+]1ccn(CCCCCCCCCCCC)c1C.[I-]`: the MIC against Pseudomonas putida stood at 50 µg/mL; against Staphylococcus aureus it was 0.39 µg/mL; against Escherichia coli, 6.25 µg/mL; against Bacillus subtilis, 0.39 µg/mL.

In the case of `CCCCCC#CC[n+]1ccn(CCCC[Si](C)(C)C)c1.[I-]`, the minimum inhibitory concentration (MIC) against Pseudomonas putida turned out to be 100 µg/mL; in the assay with Staphylococcus aureus, 3.13 µg/mL; against Escherichia coli it was 50 µg/mL; in the assay with Bacillus subtilis, 1.56 µg/mL.

As for `C[Si](C)(C)CCCCCn1cc[n+](Cc2ccc(CC[Si](C)(C)C)cc2)c1.[I-]`, the minimal inhibitory concentration (MIC) was greater than 100 µg/mL in the assay on Pseudomonas putida, 0.78 µg/mL against Staphylococcus aureus, greater than 100 µg/mL against Escherichia coli and 0.78 µg/mL against Bacillus subtilis.

As to `CCCCCC#CC[n+]1ccn(CCCCC[Si](C)(C)C)c1C.[I-]`, the minimum inhibitory concentration (MIC) worked out at 50 µg/mL in the assay on Pseudomonas putida, 0.39 µg/mL against Staphylococcus aureus, 12.5 µg/mL in the assay with Escherichia coli and 0.39 µg/mL against Bacillus subtilis.

For the molecule `CCCCCC#CC[N+]1(CCCCC[Si](C)(C)C)CCCC1.[I-]`, the MIC with Pseudomonas putida was greater than 50 µg/mL; with Staphylococcus aureus it was 1.56 µg/mL; against Escherichia coli it was greater than 50 µg/mL; against Bacillus subtilis, 1.56 µg/mL.

As for `CCCCCC#CC[n+]1ccn(CCCC[Si](C)(C)C)c1C.[I-]`, the minimal inhibitory concentration (MIC) in the assay on Pseudomonas putida is 100 µg/mL; in the assay with Staphylococcus aureus, 1.56 µg/mL; against Escherichia coli it was 50 µg/mL; against Bacillus subtilis it was 1.56 µg/mL.

For the molecule `C[Si](C)(C)CCCCCCCCCn1cc[n+](Cc2ccc(CC[Si](C)(C)C)cc2)c1.[I-]`, the minimal inhibitory concentration (MIC) in the assay on Pseudomonas putida is greater than 100 µg/mL; against Staphylococcus aureus it was greater than 6.25 µg/mL; with Escherichia coli it was greater than 100 µg/mL; in the assay on Bacillus subtilis, 6.25 µg/mL.

On to `CCCCCCCCCCCCCCCC[n+]1ccn(Cc2ccccc2)c1C.[I-]`, for which the MIC with Escherichia coli worked out at 3.13 µg/mL; in the assay with Bacillus subtilis, 1.56 µg/mL.

`CCCCCC#CC[n+]1ccn(CCCCCCCCC[Si](C)(C)C)c1C.[I-]`: the MIC against Pseudomonas putida came to 100 µg/mL; against Staphylococcus aureus, 0.78 µg/mL; in the assay on Escherichia coli it was 100 µg/mL; against Bacillus subtilis, 0.39 µg/mL.

As for `C[Si](C)(C)CCCCn1cc[n+](-c2ccc(-c3ccccc3)cc2)c1.[I-]`, the minimum inhibitory concentration (MIC) with Pseudomonas putida is 100 µg/mL; against Staphylococcus aureus, 0.39 µg/mL; with Escherichia coli, 100 µg/mL; against Bacillus subtilis it was 1.56 µg/mL.
